Assay results as given in the supplement of paper PMC10307832.

Tests used:
Experiment in all cases: relative viability (nuclei count vs DMSO), 5 days (fraction); higher = more cells survive
[1] = compound: C[C@@H](Oc1cc(-c2cnn(C3CCNCC3)c2)cnc1N)c1c(Cl)ccc(F)c1Cl [Crizotinib] + Cc1nc(NC(=O)N2CCC[C@H]2C(N)=O)sc1-c1ccnc(C(C)(C)C(F)(F)F)c1 [Alpelisib] (partner 2 µM)
Summary of the method: (§1)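 Lung cancer cell lines, seeded in 1536-well plates, were treated the following day by pin tool with a single drug or with five library-drug doses (not always all listed) in √10 steps on top of a fixed anchor-drug dose. Cells were fixed and nuclei stained in one step after 5 days, and nuclei were counted. Relative viability is the nuclei count for treated wells divided by that for vehicle wells, reported as medians of duplicate plates.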

[2] = compound: O=C(c1cc(Cc2n[nH]c(=O)c3ccccc23)ccc1F)N1CCN(C(=O)C2CC2)CC1 [Olaparib] + CCNC(=O)c1noc(-c2cc(C(C)C)c(O)cc2O)c1-c1ccc(CN2CCOCC2)cc1 [Luminespib] (partner 0.01 µM)
Summary of the method: as §1

[3] = compound: CC(C)C[C@H](NC(=O)[C@H](CCc1ccccc1)NC(=O)CN1CCOCC1)C(=O)N[C@@H](Cc1ccccc1)C(=O)N[C@@H](CC(C)C)C(=O)[C@@]1(C)CO1 [Carfilzomib] + CC(=O)Nc1cccc(-n2c(=O)n(C3CC3)c(=O)c3c(Nc4ccc(I)cc4F)n(C)c(=O)c(C)c32)c1 [Trametinib] (partner 0.02 µM)
Summary of the method: as §1

[4] = compound: O=C(c1cc(Cc2n[nH]c(=O)c3ccccc23)ccc1F)N1CCN(C(=O)C2CC2)CC1 [Olaparib] + CS(=O)(=O)CCNCc1ccc(-c2ccc3ncnc(Nc4ccc(OCc5cccc(F)c5)c(Cl)c4)c3c2)o1 [Lapatinib] (partner 2 µM)
Summary of the method: as §1

| Cell Line | relative viability ([1]; first compound 0.01 µM) | relative viability ([1]; first compound 0.1 µM) | relative viability ([1]; first compound 0.3162 µM) | relative viability ([1]; first compound 1 µM) | relative viability ([2]; first compound 0.08 µM) | relative viability ([2]; first compound 0.253 µM) | relative viability ([2]; first compound 2.53 µM) | relative viability ([2]; first compound 8 µM) | relative viability ([3]; first compound 0.001 µM) | relative viability ([3]; first compound 0.003162 µM) | relative viability ([3]; first compound 0.01 µM) | relative viability ([3]; first compound 0.03162 µM) | relative viability ([3]; first compound 0.1 µM) | relative viability ([4]; first compound 0.08 µM) | relative viability ([4]; first compound 0.253 µM) | relative viability ([4]; first compound 2.53 µM) | relative viability ([4]; first compound 8 µM) | relative viability ([1]; first compound 0.03162 µM) |
| --- | --- | --- | --- | --- | --- | --- | --- | --- | --- | --- | --- | --- | --- | --- | --- | --- | --- | --- |
| NCI-H1944 | 0.787 | 0.804 | 0.808 | 0.861 | 0.741 | 0.625 | 0.534 | 0.534 | 0.457 | 0.464 | 0.398 | 0.473 | 0.202 | 0.781 | 0.663 | 0.668 | 0.627 |  |
| NCI-H1975 | 0.682 | 0.673 | 0.689 | 0.68 | 0.169 | 0.174 | 0.258 | 0.234 | 0.267 | 0.312 | 0.33 | 0.102 | 0.101 | 0.999 | 0.844 | 0.808 | 0.786 | 0.683 |
| NCI-H1993 | 0.669 | 0.652 | 0.715 | 0.737 | 0.87 | 0.842 | 0.78 | 1.04 | 0.51 | 0.471 | 0.603 | 0.53 | 0.481 | 0.932 | 0.779 | 0.855 | 0.77 | 0.625 |
| NCI-H2009 | 1.16 |  | 1.12 | 1.09 | 1.13 | 0.966 | 0.893 | 0.701 | 0.232 | 0.312 | 0.287 | 0.295 | 0.119 | 0.934 | 0.975 | 0.884 | 0.606 | 1.16 |
| NCI-H2023 | 0.523 | 0.637 | 0.503 | 0.499 | 0.647 | 0.724 | 0.629 | 0.379 | 0.486 | 0.614 | 0.669 | 0.269 | 0.0795 | 1.08 | 0.755 | 0.763 | 0.691 | 0.611 |
| NCI-H2085 | 0.954 |  | 1.05 | 0.954 | 0.499 | 0.381 | 0.427 | 0.437 | 0.498 | 0.503 | 0.478 | 0.35 | 0.223 | 0.968 | 0.711 | 0.737 | 0.618 | 1.02 |
| NCI-H2087 | 1.02 |  |  | 1.21 | 0.162 | 0.159 | 0.199 | 0.154 | 0.187 | 0.235 | 0.131 | 0.0842 | 0.0653 | 1.08 | 0.997 | 0.892 | 0.632 |  |
| NCI-H2126 | 0.719 | 0.714 | 0.708 | 0.79 | 1.13 | 0.797 | 0.811 | 0.724 | 0.516 | 0.61 | 0.58 | 0.563 | 0.447 | 0.845 | 0.766 | 0.759 | 0.784 | 0.782 |
| NCI-H2170 | 0.804 | 0.74 | 0.709 | 0.904 | 0.735 | 0.651 | 0.594 | 0.5 | 0.931 | 0.921 | 0.863 | 0.868 | 0.25 | 0.29 | 0.259 | 0.269 | 0.279 | 0.779 |
| NCI-H2228 | 0.666 | 0.769 | 0.451 | 0.288 | 0.146 | 0.132 | 0.145 | 0.117 | 0.235 | 0.584 | 0.697 | 0.103 | 0.109 | 1.28 | 0.879 | 0.835 | 0.765 | 0.799 |
